According to ChEMBL document CHEMBL5058649, “Data for DCP probe BAY 1816032” (2022):

How the values were obtained:
HT1197 = assay: HT-1197 cell line Proliferation assay; format: functional, Homo sapiens; details: time 4 day
[1] = molecular target: Dual specificity mitogen-activated protein kinase kinase 6 (Homo sapiens) (UniProt P52564); assay: MEK6 DiscoveRx kinase panel; details: Compound concentration 1.0 uM
[2] = molecular target: Non-receptor tyrosine-protein kinase TNK1 (Homo sapiens) (UniProt Q13470); assay: TNK1 DiscoveRx kinase panel; details: Compound concentration 1.0 uM
[3] = molecular target: Mitogen-activated protein kinase kinase kinase 1 (Homo sapiens) (UniProt Q13233); assay: MAP3K1 DiscoveRx kinase panel; details: Compound concentration 1.0 uM
[4] = molecular target: Mitogen-activated protein kinase kinase kinase 6 (Homo sapiens) (UniProt O95382); assay: ASK2 DiscoveRx kinase panel; details: Compound concentration 1.0 uM
[5] = molecular target: 5-hydroxytryptamine receptor 3A (Homo sapiens) (UniProt P46098); details: Compound concentration 10.0 uM
[6] = molecular target: Serine/threonine-protein kinase Nek2 (Homo sapiens) (UniProt P51955); assay: NEK2 DiscoveRx kinase panel; details: Compound concentration 1.0 uM
[7] = molecular target: Dual specificity mitogen-activated protein kinase kinase 3 (Homo sapiens) (UniProt P46734); assay: MEK3 DiscoveRx kinase panel; details: Compound concentration 1.0 uM
[8] = molecular target: Estrogen receptor (Homo sapiens) (UniProt P03372); details: Compound concentration 10.0 uM
[9] = molecular target: Calcium/calmodulin-dependent protein kinase type II subunit delta (Homo sapiens) (UniProt Q13557); assay: CAMK2D DiscoveRx kinase panel; details: Compound concentration 1.0 uM
[10] = molecular target: Serine/threonine-protein kinase MAK (Homo sapiens) (UniProt P20794); assay: MAK DiscoveRx kinase panel; details: Compound concentration 1.0 uM
[11] = molecular target: Mitogen-activated protein kinase 13 (Homo sapiens) (UniProt O15264); assay: p38-delta DiscoveRx kinase panel; details: Compound concentration 1.0 uM
[12] = molecular target: MAP kinase-activated protein kinase 2 (Homo sapiens) (UniProt P49137); assay: MAPKAPK2 DiscoveRx kinase panel; details: Compound concentration 1.0 uM
[13] = molecular target: Cyclin-dependent kinase-like 2 (Homo sapiens) (UniProt Q92772); assay: CDKL2 DiscoveRx kinase panel; details: Compound concentration 1.0 uM
[14] = molecular target: Dual specificity tyrosine-phosphorylation-regulated kinase 2 (Homo sapiens) (UniProt Q92630); assay: DYRK2 DiscoveRx kinase panel; details: Compound concentration 1.0 uM
[15] = molecular target: Focal adhesion kinase 1 (Homo sapiens) (UniProt Q05397); assay: FAK DiscoveRx kinase panel; details: Compound concentration 1.0 uM
[16] = molecular target: 3-phosphoinositide-dependent protein kinase 1 (Homo sapiens) (UniProt O15530); assay: PDPK1 DiscoveRx kinase panel; details: Compound concentration 1.0 uM
[17] = molecular target: Ribosomal protein S6 kinase alpha-1 (Homo sapiens) (UniProt Q15418); assay: RSK1(Kin.Dom.1-N-terminal) DiscoveRx kinase panel; details: Compound concentration 1.0 uM
[18] = molecular target: Mitogen-activated protein kinase 7 (Homo sapiens) (UniProt Q13164); assay: ERK5 DiscoveRx kinase panel; details: Compound concentration 1.0 uM
[19] = molecular target: Uncharacterized serine/threonine-protein kinase SBK3 (Homo sapiens) (UniProt P0C264); assay: SgK110 DiscoveRx kinase panel; details: Compound concentration 1.0 uM
[20] = molecular target: Phosphatidylinositol 4-kinase beta (Homo sapiens) (UniProt Q9UBF8); assay: PIK4CB DiscoveRx kinase panel; details: Compound concentration 1.0 uM
[21] = molecular target: T1, Alpha-2A adrenergic receptor (Homo sapiens) (UniProt P08913); details: Compound concentration 10.0 uM
T1 sequence (whole entry): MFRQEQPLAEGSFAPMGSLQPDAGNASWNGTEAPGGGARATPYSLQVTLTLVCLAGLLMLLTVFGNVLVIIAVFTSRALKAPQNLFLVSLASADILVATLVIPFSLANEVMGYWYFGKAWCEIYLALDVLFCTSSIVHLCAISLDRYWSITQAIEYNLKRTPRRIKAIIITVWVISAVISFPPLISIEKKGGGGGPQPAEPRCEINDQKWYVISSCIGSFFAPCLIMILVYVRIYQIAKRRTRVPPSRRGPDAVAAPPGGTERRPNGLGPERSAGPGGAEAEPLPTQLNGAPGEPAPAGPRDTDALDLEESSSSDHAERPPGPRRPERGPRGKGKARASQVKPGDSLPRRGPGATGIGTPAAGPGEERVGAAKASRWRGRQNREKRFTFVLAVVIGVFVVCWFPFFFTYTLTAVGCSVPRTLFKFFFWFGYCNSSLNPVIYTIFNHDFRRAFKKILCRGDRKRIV

[22] = molecular target: Death-associated protein kinase 2 (Homo sapiens) (UniProt Q9UIK4); assay: DAPK2 DiscoveRx kinase panel; details: Compound concentration 1.0 uM
[23] = molecular target: Mitogen-activated protein kinase 8 (Homo sapiens) (UniProt P45983); assay: JNK1 DiscoveRx kinase panel; details: Compound concentration 1.0 uM
[24] = molecular target: Eukaryotic translation initiation factor 2-alpha kinase 1 (Homo sapiens) (UniProt Q9BQI3); assay: EIF2AK1 DiscoveRx kinase panel; details: Compound concentration 1.0 uM
[25] = molecular target: Calcium/calmodulin-dependent protein kinase type 1G (Homo sapiens) (UniProt Q96NX5); assay: CAMK1G DiscoveRx kinase panel; details: Compound concentration 1.0 uM
[26] = molecular target: Insulin receptor-related protein (Homo sapiens) (UniProt P14616); assay: INSRR DiscoveRx kinase panel; details: Compound concentration 1.0 uM
[27] = molecular target: Serine/threonine-protein kinase TBK1 (Homo sapiens) (UniProt Q9UHD2); assay: TBK1 DiscoveRx kinase panel; details: Compound concentration 1.0 uM
[28] = molecular target: Ephrin type-B receptor 2 (Homo sapiens) (UniProt P29323); assay: EPHB2 DiscoveRx kinase panel; details: Compound concentration 1.0 uM
[29] = molecular target: Epithelial discoidin domain-containing receptor 1 (Homo sapiens, UniProt Q08345); assay: DDR1 DiscoveRx kinase panel
[30] = molecular target: Histamine H2 receptor (Homo sapiens) (UniProt P25021); details: Compound concentration 10.0 uM
[31] = molecular target: Mitogen-activated protein kinase kinase kinase 20 (Homo sapiens) (UniProt Q9NYL2); assay: ZAK DiscoveRx kinase panel; details: Compound concentration 1.0 uM
[32] = molecular target: Sigma non-opioid intracellular receptor 1 (Homo sapiens, UniProt Q99720); assay: Inhibition of Sigma 1 at 10 µM in the Eurofins-Panlabs radioligand binding assay (Eurofins_assay_278110); parameters: ligand concentration 8 nM; details: Compound concentration 10.0 uM
[33] = molecular target: AP2-associated protein kinase 1 (Homo sapiens) (UniProt Q2M2I8); assay: AAK1 DiscoveRx kinase panel; details: Compound concentration 1.0 uM
[34] = molecular target: Serine/threonine-protein kinase tousled-like 1 (Homo sapiens) (UniProt Q9UKI8); assay: TLK1 DiscoveRx kinase panel; details: Compound concentration 1.0 uM
[35] = molecular target: Myosin light chain kinase, smooth muscle (Homo sapiens) (UniProt Q15746); assay: MYLK DiscoveRx kinase panel; details: Compound concentration 1.0 uM
[36] = molecular target: Mitogen-activated protein kinase 3 (Homo sapiens) (UniProt P27361); assay: ERK1 DiscoveRx kinase panel; details: Compound concentration 1.0 uM
[37] = molecular target: Mitogen-activated protein kinase kinase kinase 11 (Homo sapiens) (UniProt Q16584); assay: MLK3 DiscoveRx kinase panel; details: Compound concentration 1.0 uM
[38] = molecular target: Alpha-1D adrenergic receptor (Homo sapiens, UniProt P25100); assay: GPCRScan assay: inhibition of Alpha1D; parameters: radioligand conc. used [nm] 0.3 – 1.0, parental cells stable
[39] = molecular target: Bone morphogenetic protein receptor type-2 (Homo sapiens) (UniProt Q13873); assay: BMPR2 DiscoveRx kinase panel; details: Compound concentration 1.0 uM
Rattus norvegicus = organism: Rattus norvegicus; details: Compound concentration 10.0 uM
[40] = molecular target: Substance-P receptor (Homo sapiens) (UniProt P25103); assay: Inhibition of Tachykinin NK1 at 10 µM in the Eurofins-Panlabs radioligand binding assay (Eurofins_assay_255520); parameters: ligand concentration 0.8 nM; details: Compound concentration 10.0 uM

Sequence of Alpha-1D adrenergic receptor (P25100 whole entry): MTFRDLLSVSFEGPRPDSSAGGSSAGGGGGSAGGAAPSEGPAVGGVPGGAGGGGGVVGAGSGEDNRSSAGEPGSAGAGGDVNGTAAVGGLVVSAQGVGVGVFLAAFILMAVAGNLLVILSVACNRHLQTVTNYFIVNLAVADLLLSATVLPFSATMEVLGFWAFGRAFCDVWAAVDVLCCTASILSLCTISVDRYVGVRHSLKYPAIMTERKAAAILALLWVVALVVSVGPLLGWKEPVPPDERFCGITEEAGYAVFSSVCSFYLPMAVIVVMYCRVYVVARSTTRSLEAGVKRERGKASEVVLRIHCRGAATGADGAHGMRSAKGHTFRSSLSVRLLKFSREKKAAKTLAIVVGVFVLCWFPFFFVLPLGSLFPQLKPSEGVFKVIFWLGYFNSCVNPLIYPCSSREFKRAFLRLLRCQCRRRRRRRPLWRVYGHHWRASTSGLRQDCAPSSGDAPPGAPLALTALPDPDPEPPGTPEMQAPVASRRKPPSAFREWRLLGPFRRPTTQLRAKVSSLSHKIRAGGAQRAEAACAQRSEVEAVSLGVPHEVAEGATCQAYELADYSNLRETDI
Sequence of Epithelial discoidin domain-containing receptor 1 (Q08345 whole entry, the tested form may be a part): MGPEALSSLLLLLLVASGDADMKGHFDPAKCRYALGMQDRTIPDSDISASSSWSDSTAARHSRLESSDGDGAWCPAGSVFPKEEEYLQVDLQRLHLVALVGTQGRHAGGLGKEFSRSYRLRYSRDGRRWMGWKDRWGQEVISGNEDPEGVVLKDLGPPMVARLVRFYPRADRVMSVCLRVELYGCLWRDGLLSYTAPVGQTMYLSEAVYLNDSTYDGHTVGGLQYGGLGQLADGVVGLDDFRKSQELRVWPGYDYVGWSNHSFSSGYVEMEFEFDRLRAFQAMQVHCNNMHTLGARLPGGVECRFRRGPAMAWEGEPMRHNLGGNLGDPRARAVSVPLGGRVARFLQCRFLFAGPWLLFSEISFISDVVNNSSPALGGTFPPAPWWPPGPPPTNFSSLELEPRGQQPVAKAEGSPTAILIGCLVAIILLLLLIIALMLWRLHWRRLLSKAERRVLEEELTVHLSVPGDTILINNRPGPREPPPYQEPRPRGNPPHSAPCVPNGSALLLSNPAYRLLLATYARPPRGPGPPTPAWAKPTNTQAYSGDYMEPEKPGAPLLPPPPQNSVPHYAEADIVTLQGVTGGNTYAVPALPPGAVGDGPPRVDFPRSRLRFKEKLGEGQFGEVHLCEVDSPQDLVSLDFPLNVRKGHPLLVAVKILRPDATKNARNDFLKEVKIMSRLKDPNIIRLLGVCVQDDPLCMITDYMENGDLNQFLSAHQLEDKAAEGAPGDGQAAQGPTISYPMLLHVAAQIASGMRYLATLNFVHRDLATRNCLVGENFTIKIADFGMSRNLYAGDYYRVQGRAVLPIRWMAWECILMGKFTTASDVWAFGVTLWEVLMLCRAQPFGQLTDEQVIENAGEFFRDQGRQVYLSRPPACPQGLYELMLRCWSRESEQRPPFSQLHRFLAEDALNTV
Sequence of Mitogen-activated protein kinase kinase kinase 6 (Homo sapiens) (O95382 whole entry): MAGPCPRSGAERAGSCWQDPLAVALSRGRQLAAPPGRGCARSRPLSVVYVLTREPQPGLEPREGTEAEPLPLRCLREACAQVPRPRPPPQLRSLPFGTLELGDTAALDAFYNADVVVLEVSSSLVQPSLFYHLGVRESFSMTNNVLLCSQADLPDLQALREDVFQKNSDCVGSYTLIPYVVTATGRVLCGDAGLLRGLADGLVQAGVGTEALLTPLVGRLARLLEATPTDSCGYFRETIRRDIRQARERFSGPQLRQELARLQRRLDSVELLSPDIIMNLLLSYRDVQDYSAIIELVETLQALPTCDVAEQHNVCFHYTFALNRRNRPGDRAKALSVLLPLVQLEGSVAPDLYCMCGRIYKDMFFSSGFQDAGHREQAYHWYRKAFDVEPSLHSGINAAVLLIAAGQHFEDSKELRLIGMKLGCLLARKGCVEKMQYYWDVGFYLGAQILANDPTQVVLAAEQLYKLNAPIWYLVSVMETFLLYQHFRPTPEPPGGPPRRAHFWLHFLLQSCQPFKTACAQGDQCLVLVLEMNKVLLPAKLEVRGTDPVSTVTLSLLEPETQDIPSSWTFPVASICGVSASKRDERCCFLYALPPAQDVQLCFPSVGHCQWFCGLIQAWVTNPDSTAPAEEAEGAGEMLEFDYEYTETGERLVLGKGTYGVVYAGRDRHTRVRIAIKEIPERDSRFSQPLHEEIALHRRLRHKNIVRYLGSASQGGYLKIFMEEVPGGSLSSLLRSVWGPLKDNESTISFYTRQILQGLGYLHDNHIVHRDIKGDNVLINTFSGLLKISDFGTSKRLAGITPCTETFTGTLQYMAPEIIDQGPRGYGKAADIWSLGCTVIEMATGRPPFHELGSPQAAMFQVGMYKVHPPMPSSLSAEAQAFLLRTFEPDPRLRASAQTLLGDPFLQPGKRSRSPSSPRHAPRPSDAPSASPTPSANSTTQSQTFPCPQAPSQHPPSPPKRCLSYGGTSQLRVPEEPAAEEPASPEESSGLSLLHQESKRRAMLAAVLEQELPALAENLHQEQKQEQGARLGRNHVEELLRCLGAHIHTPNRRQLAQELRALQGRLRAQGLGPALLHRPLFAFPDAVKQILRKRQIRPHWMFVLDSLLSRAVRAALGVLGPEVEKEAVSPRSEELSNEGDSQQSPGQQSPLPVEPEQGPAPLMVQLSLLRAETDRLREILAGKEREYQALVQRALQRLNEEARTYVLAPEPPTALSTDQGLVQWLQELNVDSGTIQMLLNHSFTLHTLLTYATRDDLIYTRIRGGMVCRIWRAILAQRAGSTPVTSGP
Sequence of Serine/threonine-protein kinase MAK (Homo sapiens) (P20794 whole entry): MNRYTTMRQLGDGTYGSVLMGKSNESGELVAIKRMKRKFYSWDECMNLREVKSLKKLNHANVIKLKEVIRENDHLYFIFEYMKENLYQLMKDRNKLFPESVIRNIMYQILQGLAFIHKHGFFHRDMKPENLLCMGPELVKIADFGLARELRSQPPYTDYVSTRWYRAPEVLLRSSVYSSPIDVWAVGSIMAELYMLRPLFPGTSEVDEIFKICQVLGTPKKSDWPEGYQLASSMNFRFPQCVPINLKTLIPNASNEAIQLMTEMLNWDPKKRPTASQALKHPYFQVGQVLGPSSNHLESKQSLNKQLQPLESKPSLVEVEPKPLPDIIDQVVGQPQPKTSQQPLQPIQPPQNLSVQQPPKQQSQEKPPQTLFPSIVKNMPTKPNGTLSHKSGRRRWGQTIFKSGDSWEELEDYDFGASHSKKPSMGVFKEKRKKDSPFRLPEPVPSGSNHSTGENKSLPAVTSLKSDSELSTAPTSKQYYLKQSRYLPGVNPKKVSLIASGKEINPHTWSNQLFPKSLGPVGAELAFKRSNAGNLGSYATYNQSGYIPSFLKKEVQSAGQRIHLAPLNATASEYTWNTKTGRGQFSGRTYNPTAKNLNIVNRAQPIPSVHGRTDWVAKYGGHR
Sequence of Serine/threonine-protein kinase TBK1 (Homo sapiens) (Q9UHD2 whole entry): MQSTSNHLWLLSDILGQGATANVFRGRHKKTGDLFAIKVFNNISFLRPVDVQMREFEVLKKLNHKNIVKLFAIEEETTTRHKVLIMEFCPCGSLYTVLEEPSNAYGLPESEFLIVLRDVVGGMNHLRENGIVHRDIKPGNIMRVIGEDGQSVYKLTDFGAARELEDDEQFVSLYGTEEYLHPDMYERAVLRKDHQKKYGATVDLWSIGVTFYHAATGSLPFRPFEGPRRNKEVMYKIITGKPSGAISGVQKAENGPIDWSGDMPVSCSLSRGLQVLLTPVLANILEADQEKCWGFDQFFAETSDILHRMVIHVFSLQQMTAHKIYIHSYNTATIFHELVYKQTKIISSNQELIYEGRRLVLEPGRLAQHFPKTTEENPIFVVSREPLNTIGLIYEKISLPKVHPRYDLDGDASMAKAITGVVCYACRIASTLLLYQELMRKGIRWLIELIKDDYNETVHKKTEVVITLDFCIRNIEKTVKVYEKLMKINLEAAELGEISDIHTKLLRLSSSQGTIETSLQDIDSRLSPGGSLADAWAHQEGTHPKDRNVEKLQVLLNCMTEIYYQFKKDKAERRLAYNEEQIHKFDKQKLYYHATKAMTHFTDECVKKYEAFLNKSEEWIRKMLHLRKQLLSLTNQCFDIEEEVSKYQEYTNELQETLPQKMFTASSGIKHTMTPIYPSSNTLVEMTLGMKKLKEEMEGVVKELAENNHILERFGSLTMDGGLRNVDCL
Sequence of Ribosomal protein S6 kinase alpha-1 (Homo sapiens) (Q15418 whole entry): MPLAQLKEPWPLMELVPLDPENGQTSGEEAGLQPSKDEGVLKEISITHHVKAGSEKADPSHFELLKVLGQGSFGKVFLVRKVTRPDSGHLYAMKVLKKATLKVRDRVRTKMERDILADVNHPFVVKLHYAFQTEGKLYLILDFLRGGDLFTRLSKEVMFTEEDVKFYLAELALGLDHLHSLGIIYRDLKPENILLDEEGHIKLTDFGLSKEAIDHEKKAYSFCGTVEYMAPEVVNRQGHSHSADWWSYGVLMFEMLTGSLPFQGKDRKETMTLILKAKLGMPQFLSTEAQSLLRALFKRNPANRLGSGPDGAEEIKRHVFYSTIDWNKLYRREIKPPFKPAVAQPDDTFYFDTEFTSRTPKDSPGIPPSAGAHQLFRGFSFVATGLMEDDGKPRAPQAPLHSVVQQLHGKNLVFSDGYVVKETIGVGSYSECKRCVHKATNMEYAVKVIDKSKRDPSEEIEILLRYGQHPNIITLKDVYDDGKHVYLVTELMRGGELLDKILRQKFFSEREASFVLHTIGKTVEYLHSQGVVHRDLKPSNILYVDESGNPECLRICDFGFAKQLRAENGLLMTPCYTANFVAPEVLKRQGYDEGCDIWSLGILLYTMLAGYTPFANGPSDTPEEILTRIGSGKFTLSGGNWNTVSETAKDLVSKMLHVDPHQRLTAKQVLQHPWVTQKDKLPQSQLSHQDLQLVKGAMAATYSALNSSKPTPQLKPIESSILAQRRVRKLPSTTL

COc1cnccc1Nc1nc(-c2nn(Cc3c(F)cc(OCCO)cc3F)c3ccccc23)ncc1OC
Cell Proliferation IC50 (HT1197): 4.9 µM
residual activity [1]: 89%
residual activity [2]: 62%
residual activity [3]: 92%
residual activity [4]: 82%
inhibition [5]: -8.58%
residual activity [6]: 90%
residual activity [7]: 100%
inhibition [8]: 10%
residual activity [9]: 100%
residual activity [10]: 73%
residual activity [11]: 99%
residual activity [12]: 92%
residual activity [13]: 90%
residual activity [14]: 100%
residual activity [15]: 88%
residual activity [16]: 100%
residual activity [17]: 80%
residual activity [18]: 94%
residual activity [19]: 100%
residual activity [20]: 87%
inhibition [21]: 7.49%
residual activity [22]: 85%
residual activity [23]: 79%
residual activity [24]: 87%
residual activity [25]: 99%
residual activity [26]: 96%
residual activity [27]: 94%
residual activity [28]: 100%
Kd [29]: 2.3 µM
residual activity ([29]; Compound concentration 1.0 uM): 21%
inhibition [30]: 9.79%
residual activity [31]: 42%
inhibition [32]: -3%
residual activity [33]: 100%
residual activity [34]: 85%
residual activity [35]: 100%
residual activity [36]: 88%
residual activity [37]: 100%
Ki [38]: > 10 µM
pKi [38]: < 5
residual activity [39]: 100%
inhibition (Rattus norvegicus): 1%
inhibition [40]: 19%
